The target in one test is TNKS2 (Homo sapiens (Human), UniProt Q9H2K2). The test can be described thus: Biochemical IC50 TNKS2. To be noted: read-out: Biochemical IC50 TNKS2. An excerpt: (§1) XLfit (idbs) was used to determine the IC50-values in inhibition experiments. The following formula was chosen to fit the data points (Langmuir Binding Isotherm): fit=((A+(B*x))+4(C−B)*(1−exp((−1*D)*x)))/D)), res=(y−fit)

For the next test, the system named is HEK293. Description: Cellular IC50 HEK293. It counts as cell-based. Particulars: Homo sapiens.
Text: as §1

Where [1] appears, read: HEK293, HEK293, read-out: Cellular IC50 HEK293.
[2] abbreviates: HEK293, read-out: Cellular IC50 HEK293.

Where two headings read alike, the source gives them in different places.

Chain of TNKS2 (Q9H2K2 whole entry): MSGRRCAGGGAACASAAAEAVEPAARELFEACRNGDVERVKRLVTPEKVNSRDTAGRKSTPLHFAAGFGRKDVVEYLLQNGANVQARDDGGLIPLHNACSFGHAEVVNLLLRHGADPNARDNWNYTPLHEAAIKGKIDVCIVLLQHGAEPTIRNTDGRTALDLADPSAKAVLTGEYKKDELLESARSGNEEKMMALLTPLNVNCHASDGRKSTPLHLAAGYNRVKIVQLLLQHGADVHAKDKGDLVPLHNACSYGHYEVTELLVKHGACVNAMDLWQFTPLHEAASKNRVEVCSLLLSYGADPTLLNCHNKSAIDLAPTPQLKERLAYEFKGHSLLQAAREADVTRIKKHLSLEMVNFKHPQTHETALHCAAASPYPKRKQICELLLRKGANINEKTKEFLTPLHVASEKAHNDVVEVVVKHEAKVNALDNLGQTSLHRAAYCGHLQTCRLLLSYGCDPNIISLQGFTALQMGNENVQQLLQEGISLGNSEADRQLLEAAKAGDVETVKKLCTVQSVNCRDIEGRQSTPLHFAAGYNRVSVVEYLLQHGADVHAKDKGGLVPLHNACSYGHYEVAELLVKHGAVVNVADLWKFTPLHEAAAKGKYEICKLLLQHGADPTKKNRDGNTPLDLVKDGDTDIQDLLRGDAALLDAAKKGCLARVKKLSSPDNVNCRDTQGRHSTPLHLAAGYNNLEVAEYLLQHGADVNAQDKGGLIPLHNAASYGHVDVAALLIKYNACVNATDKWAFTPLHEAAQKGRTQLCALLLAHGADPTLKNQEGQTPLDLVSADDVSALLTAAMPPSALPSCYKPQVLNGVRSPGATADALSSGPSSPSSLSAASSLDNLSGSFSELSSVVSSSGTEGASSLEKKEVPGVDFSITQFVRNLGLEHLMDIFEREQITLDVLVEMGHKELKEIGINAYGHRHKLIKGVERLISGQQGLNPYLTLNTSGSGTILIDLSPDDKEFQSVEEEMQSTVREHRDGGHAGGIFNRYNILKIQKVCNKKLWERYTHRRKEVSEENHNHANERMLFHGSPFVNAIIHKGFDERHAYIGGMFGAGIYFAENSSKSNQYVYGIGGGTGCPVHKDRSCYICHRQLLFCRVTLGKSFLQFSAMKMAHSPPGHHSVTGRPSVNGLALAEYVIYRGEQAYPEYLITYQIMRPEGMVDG

Turning to `CCOc1ccc(-c2nnc([C@H]3C[C@H](NC(=O)c4cc5cccnc5[nH]4)C3)n2-c2ccccc2F)nc1` [Example 152, N-((1S,3r)-3-(5-(5-ethoxypyridin-2-yl)-4-(2-fluorophenyl)-4H-1,2,4-triazol-3-yl)cyclobutyl)-1H-pyrrolo[2,3-b]pyridine-2-carboxamide], the half-inhibitory concentration (IC50) was determined as 19 nM on TNKS2 and 144 nM with HEK293 (setting [1]).

In the case of `CCOc1ccc(-c2nnc([C@H]3C[C@H](NC(=O)c4cn5ccccc5n4)C3)n2-c2ccccc2F)nc1` [Example 118, N-((1S,3r)-3-(5-(5-ethoxypyridin-2-yl)-4-(2-fluorophenyl)-4H-1,2,4-triazol-3-yl)cyclobutyl)imidazo[1,2-a]pyridine-2-carboxamide], the IC50 is 12 nM at TNKS2 and 100 nM in the test with HEK293 (setting [1]).

Regarding `CCOc1ccc(-c2nnc([C@H]3C[C@H](NC(=O)c4ccnc5cccnc45)C3)n2-c2ccncc2)nc1` [Example 168, N-((1r,3r)-3-(5-(5-ethoxypyridin-2-yl)-4-(pyridin-4-yl)-4H-1,2,4-triazol-3-yl)cyclobutyl)-1,5-naphthyridine-4-carboxamide], the concentration for half-maximal inhibition (IC50) at TNKS2 was 5.4 nM; with HEK293 (setting [2]) it was 13 nM.

As to `CCOc1ccc(-c2nnc([C@H]3C[C@H](NC(=O)c4cccc(C#N)n4)C3)n2-c2ccccc2F)nc1` [Example 53, 6-cyano-N-((1S,3r)-3-(5-(5-ethoxypyridin-2-yl)-4-(2-fluorophenyl)-4H-1,2,4-triazol-3-yl)cyclobutyl)picolinamide], the IC50 was found to be 3.7 nM on TNKS2 and 13 nM with HEK293 (setting [1]).

Take `CCOc1ccc(-c2nnc([C@H]3C[C@H](NC(=O)c4cc5ncccc5[nH]4)C3)n2-c2ccccc2F)nc1` [Example 148, N-((1S,3r)-3-(5-(5-ethoxypyridin-2-yl)-4-(2-fluorophenyl)-4H-1,2,4-triazol-3-yl)cyclobutyl)-1H-pyrrolo[3,2-b]pyridine-2-carboxamide]: the IC50 at TNKS2 was found to be 5 nM; in the test on HEK293 (setting [1]), 8 nM.

Regarding `CCOc1ccc(-c2nnc([C@H]3C[C@H](NC(=O)c4ccnc5cc(F)cnc45)C3)n2-c2cccnc2)nc1` [Example 164, N-((1r,3r)-3-(5-(5-ethoxypyridin-2-yl)-4-(pyridin-3-yl)-4H-1,2,4-triazol-3-yl)cyclobutyl)-7-fluoro-1,5-naphthyridine-4-carboxamide], the values for the half-inhibitory concentration (IC50) at TNKS2 and in the test on HEK293 (setting [2]) were 5.8 nM and 9 nM, respectively.

On to `O=C(N[C@H]1C[C@H](c2nnc(-c3nccs3)n2-c2ccccc2Cl)C1)c1ccccn1` [Example 42, N-((1S,3r)-3-(4-(2-chlorophenyl)-5-(thiazol-2-yl)-4H-1,2,4-triazol-3-yl)cyclobutyl)picolinamide], for which the 50% inhibitory concentration (IC50) at TNKS2 was 5.9 nM; in the test with HEK293 (setting [1]), 20 nM.

Consider `CCOc1ccc(C(=O)N[C@H]2C[C@H](c3nnc(-c4ccncn4)n3-c3ccccc3Cl)C2)nc1` [Example 130, N-((1R,3r)-3-(4-(2-chlorophenyl)-5-(pyrimidin-4-yl)-4H-1,2,4-triazol-3-yl)cyclobutyl)-5-ethoxypicolinamide], for which the half-maximal inhibitory concentration (IC50) on TNKS2 turned out to be 4.8 nM; in the test on HEK293 (setting [1]) it was 1.4 nM.

`CCOc1ccc(-c2nnc([C@H]3C[C@H](NC(=O)c4cccc5cccnc45)C3)n2-c2ccccc2F)nc1` [Example 60, N-((1S,3r)-3-(5-(5-ethoxypyridin-2-yl)-4-(2-fluorophenyl)-4H-1,2,4-triazol-3-yl)cyclobutyl)quinoline-8-carboxamide]: the IC50 at TNKS2 stood at 2.1 nM; with HEK293 (setting [1]) it was 1.1 nM.

On to `CS(=O)(=O)c1ccc(-c2nnc([C@H]3C[C@H](NC(=O)c4ccnc5cc(F)cnc45)C3)n2-c2ccccc2F)nc1` [Example 50, 7-fluoro-N-((1S,3r)-3-(4-(2-fluorophenyl)-5-(5-(methylsulfonyl)pyridin-2-yl)-4H-1,2,4-triazol-3-yl)cyclobutyl)-1,5-naphthyridine-4-carboxamide], for which the figures for the IC50 at TNKS2 and in the test on HEK293 (setting [1]) were 1.6 nM and 0.23 nM, respectively.

With `O=C(N[C@H]1C[C@H](c2nnc(-c3ccc(OC(F)F)cn3)n2-c2ccccc2F)C1)c1cc(F)cc2nccnc12` [Example 186, N-((1S,3r)-3-(5-(5-(difluoromethoxy)pyridin-2-yl)-4-(2-fluorophenyl)-4H-1,2,4-triazol-3-yl)cyclobutyl)-7-fluoroquinoxaline-5-carboxamide], the values for the IC50 at TNKS2 and in the test on HEK293 (setting [2]) were 2.4 nM and 0.508 nM, respectively.

For the compound `CCOc1ccc(-c2nnc([C@H]3C[C@H](NC(=O)c4ccnc5cc(F)cnc45)C3)n2-c2ccncc2)nc1` [Example 170, N-((1r,3r)-3-(5-(5-ethoxypyridin-2-yl)-4-(pyridin-4-yl)-4H-1,2,4-triazol-3-yl)cyclobutyl)-7-fluoro-1,5-naphthyridine-4-carboxamide], the IC50 on TNKS2 was determined as 2.9 nM; with HEK293 (setting [2]) it was 6 nM.

For `O=C(N[C@H]1C[C@H](c2nnc(-c3cnccn3)n2-c2ccccc2F)C1)c1ccccn1` [Example 91, N-((1S,3r)-3-(4-(2-fluorophenyl)-5-(pyrazin-2-yl)-4H-1,2,4-triazol-3-yl)cyclobutyl)picolinamide], the half-inhibitory concentration (IC50) came out at 280 nM at TNKS2 and 355 nM in the test with HEK293 (setting [2]).

For `CCOc1ccc(-c2nnc([C@H]3C[C@H](NC(=O)c4ccnc5cccnc45)C3)n2-c2ccc(C)s2)nc1` [Example 82, N-((1r,3r)-3-(5-(5-ethoxypyridin-2-yl)-4-(5-methylthiophen-2-yl)-4H-1,2,4-triazol-3-yl)cyclobutyl)-1,5-naphthyridine-4-carboxamide], the half-maximal inhibitory concentration (IC50) on TNKS2 turned out to be 0.73 nM; with HEK293 (setting [2]), 0.81 nM.

For `O=C(N[C@H]1C[C@H](c2nnc(-c3ccccn3)n2-c2ccccc2F)C1)c1cc(F)cc2nccnc12` [Example 194, 7-fluoro-N-((1S,3r)-3-(4-(2-fluorophenyl)-5-(pyridin-2-yl)-4H-1,2,4-triazol-3-yl)cyclobutyl)quinoxaline-5-carboxamide], the IC50 was 2 nM on TNKS2 and 0.794 nM in the test with HEK293 (setting [2]).

On to `CCOc1ccc(-c2nnc([C@H]3C[C@H](NC(=O)c4ccccn4)C3)n2-c2ccc(Cl)s2)nc1` [Example 75, N-((1r,3r)-3-(4-(5-chlorothiophen-2-yl)-5-(5-ethoxypyridin-2-yl)-4H-1,2,4-triazol-3-yl)cyclobutyl)picolinamide], for which the concentration for half-maximal inhibition (IC50) on TNKS2 was 12 nM; in the test on HEK293 (setting [2]), 27 nM.

Take `O=C(N[C@H]1C[C@H](c2nnc(-c3ccccc3)n2-c2ccccc2F)C1)c1ccc(F)cn1` [Example 175, 5-fluoro-N-((1S,3r)-3-(4-(2-fluorophenyl)-5-phenyl-4H-1,2,4-triazol-3-yl)cyclobutyl)picolinamide]: the IC50 came to 150 nM at TNKS2 and 499 nM in the test on HEK293 (setting [1]).

Regarding `CCOc1ccc(-c2nnc([C@H]3C[C@H](NC(=O)c4cccc5c4OCCO5)C3)n2-c2ccccc2F)nc1` [Example 116, N-((1S,3r)-3-(5-(5-ethoxypyridin-2-yl)-4-(2-fluorophenyl)-4H-1,2,4-triazol-3-yl)cyclobutyl)-2,3-dihydrobenzo[b][1,4]dioxine-5-carboxamide], the results for the IC50 on TNKS2 and in the test on HEK293 (setting [1]) were 4.5 nM and 47 nM, respectively.

Turning to `CCOc1ccc(-c2nnc([C@H]3C[C@H](NC(=O)c4cc5sc(C)cc5[nH]4)C3)n2-c2ccccc2F)nc1` [Example 150, N-((1S,3r)-3-(5-(5-ethoxypyridin-2-yl)-4-(2-fluorophenyl)-4H-1,2,4-triazol-3-yl)cyclobutyl)-2-methyl-4H-thieno[3,2-b]pyrrole-5-carboxamide], the IC50 on TNKS2 was 9.5 nM; with HEK293 (setting [1]) it was 16 nM.

As to `O=C(N[C@H]1C[C@H](c2nnc(-c3nccs3)n2-c2ccccn2)C1)c1ccnc2cc(F)cnc12` [Example 39, 7-fluoro-N-((1r,3r)-3-(4-(pyridin-2-yl)-5-(thiazol-2-yl)-4H-1,2,4-triazol-3-yl)cyclobutyl)-1,5-naphthyridine-4-carboxamide], the 50% inhibitory concentration (IC50) on TNKS2 came out at 28 nM; with HEK293 (setting [1]) it was 16 nM.

On to `Cc1cccc(-c2nnc([C@H]3C[C@H](NC(=O)c4ccc5cnccc5n4)C3)n2-c2ccccc2F)n1` [Example 200, N-((1S,3r)-3-(4-(2-fluorophenyl)-5-(6-methylpyridin-2-yl)-4H-1,2,4-triazol-3-yl)cyclobutyl)-1,6-naphthyridine-2-carboxamide], for which the IC50 was determined as 4 nM at TNKS2 and 12 nM in the test with HEK293 (setting [1]).

Consider `O=C(N[C@H]1C[C@H](c2nnc(-c3ccncn3)n2-c2ccccc2Cl)C1)c1ccccc1` [Example 12, N-((1S,3r)-3-(4-(2-chlorophenyl)-5-(pyrimidin-4-yl)-4H-1,2,4-triazol-3-yl)cyclobutyl)benzamide], for which the IC50 on TNKS2 stood at 5.5 nM; in the test on HEK293 (setting [1]), 3 nM.

Regarding `CCOc1ccc(-c2nnc(C34CC(NC(=O)c5ccnc6cc(F)cnc56)(C3)C4)n2-c2ccccc2)nc1` [Example 65, N-(3-(5-(5-ethoxypyridin-2-yl)-4-phenyl-4H-1,2,4-triazol-3-yl)bicyclo[1.1.1]pentan-1-yl)-7-fluoro-1,5-naphthyridine-4-carboxamide], the IC50 at TNKS2 amounted to 1.4 nM; in the test with HEK293 (setting [1]), 10 nM.

For the compound `CCOc1ccc(-c2nnc(C34CC(NC(=O)c5ccnc6cccnc56)(C3)C4)n2-c2ccccc2F)nc1` [Example 62, N-(3-(5-(5-ethoxypyridin-2-yl)-4-(2-fluorophenyl)-4H-1,2,4-triazol-3-yl)bicyclo[1.1.1]pentan-1-yl)-1,5-naphthyridine-4-carboxamide], the values for the IC50 at TNKS2 and in the test with HEK293 (setting [1]) were 1.3 nM and 2.1 nM, respectively.

For `CCOc1ccc(-c2nnc([C@H]3C[C@H](NC(=O)c4ccc(F)cn4)C3)n2-c2ccccc2F)nc1` [Example 59, N-((1S,3r)-3-(5-(5-ethoxypyridin-2-yl)-4-(2-fluorophenyl)-4H-1,2,4-triazol-3-yl)cyclobutyl)-5-fluoropicolinamide], the IC50 at TNKS2 turned out to be 2.4 nM; with HEK293 (setting [1]), 9.5 nM.

As for `O=C(N[C@H]1C[C@H](c2nnc(-c3ccncn3)n2-c2ccccc2Cl)C1)c1ccc(F)cc1` [Example 15, N-((1S,3r)-3-(4-(2-chlorophenyl)-5-(pyrimidin-4-yl)-4H-1,2,4-triazol-3-yl)cyclobutyl)-4-fluorobenzamide], the IC50 was 4.1 nM at TNKS2 and 30 nM in the test on HEK293 (setting [1]).

A word on the IC50: it is the concentration that inhibits the measured activity by half.

Source of the values: patent US11926614B2, “1,2,4-triazole derivatives as tankyrase inhibitors” (priority 2018, dated 2024).
